Data from US9907757B2, “Coated particles and pharmaceutical dosage forms” (Lek Pharmaceuticals d.d., priority 2003, dated 2018).

Assay: Oxidative degradation of amorphous and polymorphic forms of atorvastatin at 80° C. in air and oxygen (liquid chromatography)
Assay type: physicochemical
Conditions: hemicalcium salt; for Sensitivity to oxygen and oxidation (conclusion): from 80° C., 3 days, air/oxygen study; for Increase of degradation products %: in respect to reference samples stored at 4° C.
Procedure: The influence of oxygen on occurrence of degradation products of amorphous and four polymorphic forms of atorvastatin was investigated. The samples of amorphous atorvastatin and polymorphic forms I to IV of atorvastatin were exposed at 80° C. in normal (air) and oxygen atmosphere for 3 days. The assay of oxidation products was determined by liquid chromatography. All of the chosen forms of atorvastatin stored at 4° C. were analyzed as the reference samples.

[1] = stored at 80° C. 3 days in normal (air) atmosphere
[2] = stored at 80° C. 3 days in oxygen atmosphere

Compound | Sensitivity to oxygen and oxidation (conclusion) | Increase of degradation products % [1] [%] | Increase of degradation products % [2] [%] | Sensitivity to oxygen and oxidation (conclusion) (listed as amorphous atorvastatin)
CC(C)c1c(C(=O)Nc2ccccc2)c(-c2ccccc2)c(-c2ccc(F)cc2)n1CC[C@@H](O)C[C@@H](O)CC(=O)O.CC(C)c1c(C(=O)Nc2ccccc2)c(-c2ccccc2)c(-c2ccc(F)cc2)n1CC[C@@H](O)C[C@@H](O)CC(=O)O.CC(C)c1c(C(=O)Nc2ccccc2)c(-c2ccccc2)c(-c2ccc(F)cc2)n1CC[C@@H](O)C[C@@H](O)CC(=O)[O-].CC(C)c1c(C(=O)Nc2ccccc2)c(-c2ccccc2)c(-c2ccc(F)cc2)n1CC[C@@H](O)C[C@@H](O)CC(=O)[O-].[Ca+2] (relative stereo) [Crystalline form IV, (R-(R*,R*))-2-(4-fluorophenyl-beta, delta-dihydroxy-5-(1-methylethyl)-3-phenyl-4-((phenylamino)carbonyl)-1H-pyrrole-1-heptanoic acid hemicalcium salt] | highly sensitive to oxidation | 1.14 | 3.67 | 
CC(C)c1c(C(=O)Nc2ccccc2)c(-c2ccccc2)c(-c2ccc(F)cc2)n1CC[C@@H](O)C[C@@H](O)CC(=O)O.CC(C)c1c(C(=O)Nc2ccccc2)c(-c2ccccc2)c(-c2ccc(F)cc2)n1CC[C@@H](O)C[C@@H](O)CC(=O)O.CC(C)c1c(C(=O)Nc2ccccc2)c(-c2ccccc2)c(-c2ccc(F)cc2)n1CC[C@@H](O)C[C@@H](O)CC(=O)[O-].CC(C)c1c(C(=O)Nc2ccccc2)c(-c2ccccc2)c(-c2ccc(F)cc2)n1CC[C@@H](O)C[C@@H](O)CC(=O)[O-].[Ca+2] (relative stereo) [Crystalline form I, (R-(R*,R*))-2-(4-fluorophenyl-beta, delta-dihydroxy-5-(1-methylethyl)-3-phenyl-4-((phenylamino)carbonyl)-1H-pyrrole-1-heptanoic acid hemicalcium salt] | stable to oxygen and oxidation | 0.04 | 0.07 | 
CC(C)c1c(C(=O)Nc2ccccc2)c(-c2ccccc2)c(-c2ccc(F)cc2)n1CC[C@@H](O)C[C@@H](O)CC(=O)O.CC(C)c1c(C(=O)Nc2ccccc2)c(-c2ccccc2)c(-c2ccc(F)cc2)n1CC[C@@H](O)C[C@@H](O)CC(=O)O.CC(C)c1c(C(=O)Nc2ccccc2)c(-c2ccccc2)c(-c2ccc(F)cc2)n1CC[C@@H](O)C[C@@H](O)CC(=O)[O-].CC(C)c1c(C(=O)Nc2ccccc2)c(-c2ccccc2)c(-c2ccc(F)cc2)n1CC[C@@H](O)C[C@@H](O)CC(=O)[O-].[Ca+2] (relative stereo) [Crystalline form II, (R-(R*,R*))-2-(4-fluorophenyl-beta, delta-dihydroxy-5-(1-methylethyl)-3-phenyl-4-((phenylamino)carbonyl)-1H-pyrrole-1-heptanoic acid hemicalcium salt] | slightly sensitive to oxidation | 0.25 | 0.71 | 
CC(C)c1c(C(=O)Nc2ccccc2)c(-c2ccccc2)c(-c2ccc(F)cc2)n1CC[C@@H](O)C[C@@H](O)CC(=O)O.CC(C)c1c(C(=O)Nc2ccccc2)c(-c2ccccc2)c(-c2ccc(F)cc2)n1CC[C@@H](O)C[C@@H](O)CC(=O)O.CC(C)c1c(C(=O)Nc2ccccc2)c(-c2ccccc2)c(-c2ccc(F)cc2)n1CC[C@@H](O)C[C@@H](O)CC(=O)[O-].CC(C)c1c(C(=O)Nc2ccccc2)c(-c2ccccc2)c(-c2ccc(F)cc2)n1CC[C@@H](O)C[C@@H](O)CC(=O)[O-].[Ca+2] (relative stereo) [Crystalline form III, (R-(R*,R*))-2-(4-fluorophenyl-beta, delta-dihydroxy-5-(1-methylethyl)-3-phenyl-4-((phenylamino)carbonyl)-1H-pyrrole-1-heptanoic acid hemicalcium salt] | slightly sensitive to oxidation | 0.11 | 0.47 | 
CC(C)c1c(C(=O)Nc2ccccc2)c(-c2ccccc2)c(-c2ccc(F)cc2)n1CC[C@@H](O)C[C@@H](O)CC(=O)O.CC(C)c1c(C(=O)Nc2ccccc2)c(-c2ccccc2)c(-c2ccc(F)cc2)n1CC[C@@H](O)C[C@@H](O)CC(=O)O.CC(C)c1c(C(=O)Nc2ccccc2)c(-c2ccccc2)c(-c2ccc(F)cc2)n1CC[C@@H](O)C[C@@H](O)CC(=O)[O-].CC(C)c1c(C(=O)Nc2ccccc2)c(-c2ccccc2)c(-c2ccc(F)cc2)n1CC[C@@H](O)C[C@@H](O)CC(=O)[O-].[Ca+2] (relative stereo) [Amorphous ATV, (R-(R*,R*))-2-(4-fluorophenyl-beta, delta-dihydroxy-5-(1-methylethyl)-3-phenyl-4-((phenylamino)carbonyl)-1H-pyrrole-1-heptanoic acid hemicalcium salt] |  | 1.04 | 3.4 | highly sensitive to oxidation
